From patent US7135548B2, “Modified α-MSH peptides and derivatives thereof” (Zengen, Inc., priority 2002, dated 2006)
“Also recorded” adds a separate entry of the source. Square brackets hold non-standard residues; d marks the D form. Ends that are not written are not given here. dNal = D-naphthylalanine (D-Nal)

Key:
Candida albicans [1] = assay: Inhibition of Candida albicans colony formation (viability estimated from colonies formed); assay type: cell-based; details: for % Inhib. (inhibitory effect on Candida Albicans): clinical isolates, 1×10^6/ml in HBSS, two hours at 37° C. with peptide, colonies counted after 48 hours, peptide concentration for the table not given (range tested 10^−15 to 10^−4 M); for antimicrobial activity toward Candida albicans (result in words): Table 1 / FIG. 1
Protocol: Clinical isolates of C. albicans were also obtained from the collection of the Department of Microbiology, Ospedale Maggiore di Milano. Cultures of C. albicans were maintained on Sabouraud's agar slants and periodically transferred to Sabouraud's agar plates and incubated for 48 hours at 28° C. To prepare stationary growth-phase yeast, a colony may be taken from the agar plate, transferred into 30 ml of Sabouraud-dextrose broth, and incubated for 72 hours at 32° C. Cells were centrifuged at 1000×g for ten minutes, and the pellet may be washed twice with distilled water. Cells were counted and suspended in Hank's balanced salt solution (“HBSS”) to the desired concentration. Viability, determined by exclusion of 0.01% methylene blue, remained greater than 98%.
At 1×10^6/ml in HBSS, these fungi were incubated in the presence or absence of modified α-MSH peptides at concentrations ranging from 10^−15 to 10^−4 M for two hours at 37° C. Cells were then washed in cold distilled water and diluted with HBSS to a concentration of 100 organisms/ml. One-milliliter aliquots were then dispensed on blood agar plates and incubated for 48 hours at 37° C. The organism's viability may be estimated from the number of colonies formed.

Candida albicans [2] = details: comparison value, see U.S. patent application Ser. No. 09/535,066; cited from earlier work

For HFRWGAPV [SEQ. ID. NO. 18], the “% Inhib. (inhibitory effect on Candida Albicans)” value (Candida albicans [1]) was 26.2%.

In the case of HFRWGKAV [SEQ. ID. NO. 19], the “% Inhib. (inhibitory effect on Candida Albicans)” value (Candida albicans [1]) was 12.8%.

In the case of HFRWGKDV [SEQ. ID. NO. 38], the “% Inhib. (inhibitory effect on Candida Albicans)” value (Candida albicans [1]) was 5.9%.

With HFRWGKEV [SEQ. ID. NO. 42] the “% Inhib. (inhibitory effect on Candida Albicans)” value (Candida albicans [1]) was 11.2%.

For HFRWGKFV [SEQ. ID. NO. 32], the “% Inhib. (inhibitory effect on Candida Albicans)” value (Candida albicans [1]) was 90.0%.

For HFRWGKGV [SEQ. ID. NO. 28], the “% Inhib. (inhibitory effect on Candida Albicans)” value (Candida albicans [1]) was 41.8%.

For HFRWGKKV [SEQ. ID. NO. 44], the “% Inhib. (inhibitory effect on Candida Albicans)” value (Candida albicans [1]) was 41.0%.

With HFRWGKPA [SEQ. ID. NO. 20] the “% Inhib. (inhibitory effect on Candida Albicans)” value (Candida albicans [1]) was 68.4%.

For HFRWGKPL [SEQ. ID. NO. 24], the “% Inhib. (inhibitory effect on Candida Albicans)” value (Candida albicans [1]) was 86.6%.

For HFRWGKSV [SEQ. ID. NO. 30], the “antimicrobial activity toward Candida albicans (result in words)” value (Candida albicans [1]) was “No substantial modification in activity” and the “% Inhib. (inhibitory effect on Candida Albicans)” value (Candida albicans [1]) was 32.3%.

In the case of HFR[dW]GKPV [SEQ. ID. NO. 23], the “% Inhib. (inhibitory effect on Candida Albicans)” value (Candida albicans [1]) was 81.9%.

For H[dF]RWGK[dF]V [SEQ. ID. NO. 35], the “% Inhib. (inhibitory effect on Candida Albicans)” value (Candida albicans [1]) was 82.0%.

For “His-DNal-Arg-Trp-Gly-Lys-Ala-Val (H[dNal]RWGKAV-OH) [SEQ. ID. NO. 26]”, the “% Inhib. (inhibitory effect on Candida Albicans)” value (Candida albicans [1]) was 28.0%.

With “His-DNal-Arg-Trp-Gly-Lys-Asp-Val (H[dNal]RWGKDV-OH) [SEQ. ID. NO. 41]” the “antimicrobial activity toward Candida albicans (result in words)” value (Candida albicans [1]) was “decreased activity” and the “% Inhib. (inhibitory effect on Candida Albicans)” value (Candida albicans [1]) was 16.8%.

With “His-DNal-Arg-Trp-Gly-Lys-DAla-Val (H[dNal]RWGK[dA]V-OH) [SEQ. ID. NO. 27]” the “% Inhib. (inhibitory effect on Candida Albicans)” value (Candida albicans [1]) was 69.2%.

With “His-DNal-Arg-Trp-Gly-Lys-DPhe-Val (H[dNal]RWGK[dF]V-OH) [SEQ. ID. NO. 37]” the “antimicrobial activity toward Candida albicans (result in words)” value (Candida albicans [1]) was “potent antimicrobial activity” and the “% Inhib. (inhibitory effect on Candida Albicans)” value (Candida albicans [1]) was 57.6%.

In the case of “His-DNal-Arg-Trp-Gly-Lys-Glu-Val (H[dNal]RWGKEV-OH) [SEQ. ID. NO. 43]”, the “antimicrobial activity toward Candida albicans (result in words)” value (Candida albicans [1]) was “decreased activity” and the “% Inhib. (inhibitory effect on Candida Albicans)” value (Candida albicans [1]) was 32.3%.

In the case of “His-DNal-Arg-Trp-Gly-Lys-Gly-Val (H[dNal]RWGKGV-OH) [SEQ. ID. NO. 29]”, the “% Inhib. (inhibitory effect on Candida Albicans)” value (Candida albicans [1]) was 36.2%.

With “His-DNal-Arg-Trp-Gly-Lys-Lys-Val (H[dNal]RWGKKV-OH) [SEQ. ID. NO. 45]” the “% Inhib. (inhibitory effect on Candida Albicans)” value (Candida albicans [1]) was 85.4%.

For “His-DNal-Arg-Trp-Gly-Lys-Phe-Val (H[dNal]RWGKFV-OH) [SEQ. ID. NO. 36]”, the “antimicrobial activity toward Candida albicans (result in words)” value (Candida albicans [1]) was “potent antimicrobial activity; also recorded: remarkable anticandidacidal activity” and the “% Inhib. (inhibitory effect on Candida Albicans)” value (Candida albicans [1]) was 99.7%.

In the case of “His-DNal-Arg-Trp-Gly-Lys-Pro-Val (H[dNal]RWGKPV-OH) [SEQ. ID. NO. 22]”, the “antimicrobial activity toward Candida albicans (result in words)” value (Candida albicans [1]) was “increased activity” and the “% Inhib. (inhibitory effect on Candida Albicans)” value (Candida albicans [1]) was 95.3%.

In the case of “His-DNal-Arg-Trp-Gly-Lys-Ser-Val (H[dNal]RWGKSV-OH) [SEQ. ID. NO. 31]”, the “antimicrobial activity toward Candida albicans (result in words)” value (Candida albicans [1]) was “No substantial modification in activity” and the “% Inhib. (inhibitory effect on Candida Albicans)” value (Candida albicans [1]) was 73.9%.

In the case of “His-DPhe-Arg-Trp-Gly-Lys-Asp-Val (H[dF]RWGKDV-OH; N-terminus assumed; SMILES CC(C)[C@H](NC(=O)[C@H](CC(=O)O)NC(=O)[C@H](CCCCN)NC(=O)CNC(=O)[C@H](Cc1c[nH]c2ccccc12)NC(=O)[C@H](CCCNC(=N)N)NC(=O)[C@@H](Cc1ccccc1)NC(=O)[C@@H](N)Cc1c[nH]cn1)C(=O)O) [SEQ. ID. NO. 40]”, the “% Inhib. (inhibitory effect on Candida Albicans)” value (Candida albicans [1]) was 3.7%.

For “His-DPhe-Arg-Trp-Gly-Lys-Phe-Val (H[dF]RWGKFV-OH; N-terminus assumed; SMILES CC(C)[C@H](NC(=O)[C@H](Cc1ccccc1)NC(=O)[C@H](CCCCN)NC(=O)CNC(=O)[C@H](Cc1c[nH]c2ccccc12)NC(=O)[C@H](CCCNC(=N)N)NC(=O)[C@@H](Cc1ccccc1)NC(=O)[C@@H](N)Cc1c[nH]cn1)C(=O)O) [SEQ. ID. NO. 34]”, the “% Inhib. (inhibitory effect on Candida Albicans)” value (Candida albicans [1]) was 89.6%.

For “His-DPhe-Arg-Trp-Gly-Lys-Pro-Val (H[dF]RWGKPV-OH; N-terminus assumed; SMILES CC(C)[C@H](NC(=O)[C@@H]1CCCN1C(=O)[C@H](CCCCN)NC(=O)CNC(=O)[C@H](Cc1c[nH]c2ccccc12)NC(=O)[C@H](CCCNC(=N)N)NC(=O)[C@@H](Cc1ccccc1)NC(=O)[C@@H](N)Cc1c[nH]cn1)C(=O)O) [SEQ. ID. NO. 21]”, the “% Inhib. (inhibitory effect on Candida Albicans)” value (Candida albicans [1]) was 79.4%.

In the case of “His-Phe-Arg-Trp-Gly-Lys-DAla-Val (HFRWGK[dA]V-OH; N-terminus assumed; SMILES CC(C)[C@H](NC(=O)[C@@H](C)NC(=O)[C@H](CCCCN)NC(=O)CNC(=O)[C@H](Cc1c[nH]c2ccccc12)NC(=O)[C@H](CCCNC(=N)N)NC(=O)[C@H](Cc1ccccc1)NC(=O)[C@@H](N)Cc1c[nH]cn1)C(=O)O) [SEQ. ID. NO. 25]”, the “% Inhib. (inhibitory effect on Candida Albicans)” value (Candida albicans [1]) was 43.7%.

In the case of “His-Phe-Arg-Trp-Gly-Lys-DAsp-Val (HFRWGK[dD]V-OH; N-terminus assumed; SMILES CC(C)[C@H](NC(=O)[C@@H](CC(=O)O)NC(=O)[C@H](CCCCN)NC(=O)CNC(=O)[C@H](Cc1c[nH]c2ccccc12)NC(=O)[C@H](CCCNC(=N)N)NC(=O)[C@H](Cc1ccccc1)NC(=O)[C@@H](N)Cc1c[nH]cn1)C(=O)O) [SEQ. ID. NO. 39]”, the “% Inhib. (inhibitory effect on Candida Albicans)” value (Candida albicans [1]) was 15.7%.

For “His-Phe-Arg-Trp-Gly-Lys-DPhe-Val (HFRWGK[dF]V-OH; N-terminus assumed; SMILES CC(C)[C@H](NC(=O)[C@@H](Cc1ccccc1)NC(=O)[C@H](CCCCN)NC(=O)CNC(=O)[C@H](Cc1c[nH]c2ccccc12)NC(=O)[C@H](CCCNC(=N)N)NC(=O)[C@H](Cc1ccccc1)NC(=O)[C@@H](N)Cc1c[nH]cn1)C(=O)O) [SEQ. ID. NO. 33]”, the “% Inhib. (inhibitory effect on Candida Albicans)” value (Candida albicans [1]) was 97.5%.

In the case of “His-Phe-Arg-Trp-Gly-Lys-Pro-DVal (HFRWGKP[dV]-OH; N-terminus assumed; SMILES CC(C)[C@@H](NC(=O)[C@@H]1CCCN1C(=O)[C@H](CCCCN)NC(=O)CNC(=O)[C@H](Cc1c[nH]c2ccccc12)NC(=O)[C@H](CCCNC(=N)N)NC(=O)[C@H](Cc1ccccc1)NC(=O)[C@@H](N)Cc1c[nH]cn1)C(=O)O) [SEQ. ID. NO. 17]”, the “% Inhib. (inhibitory effect on Candida Albicans)” value (Candida albicans [1]) was 82.5%.

In the case of “SYSMEHFRWGKPV [α-MSH, naturally occurring 13-amino acid peptide, α-melanocyte-stimulating hormone]”, the “inhibition of C. albicans colonies by naturally occurring α-MSH” value (Candida albicans [2]) is listed as “less than 80%”.
